Data on 90 compounds can be found in a melting point compilation (Tetko et al.; mined from patent text by program, amines drawn as free bases though some values may be those of a salt).

Broadly, the melting point is the temperature, or range, at which the solid turns liquid.

For the compound `CCOC(CCOc1cc(Cc2cnc(N)nc2N)cc(OC)c1OC)OCC`, the melting point is 105 to 106 °C.
In the case of `O=c1c2ccccc2nnn1CCCN1CC=C(c2c[nH]c3ccccc23)CC1` it was 189 °C.
With `O=c1[nH]c(=S)[nH]cc1Cc1cccc(Cl)c1`, the melting point lay within 192 to 195 °C.
Under `COC(=O)[C@H](CCSC)NC(=O)c1ccc(NC(Cn2ccnc2)c2ccc(F)cc2)cc1-c1ccc(F)cc1` (stereo not given in full) stands 94 to 98 °C; under `COc1cc(NCC(O)CO)c([N+](=O)[O-])cc1O` (stereo not given), 180 °C; under `CN(C)c1cnc(-c2cccc(Cl)c2Cl)c(N)n1`, 147 to 148 °C.
`CCCCOC(=O)S(=O)(=O)Nc1sc(CC(C)C)cc1-c1ccc(Cn2c(-c3ccccc3)nc(OC)c2C=O)c(Cl)c1` came in with a melting point of 58 °C.
In the case of `CNC(=S)N(Cc1cccnc1)N(C)C` it was 101 to 102 °C; in that of `CC1(C)CC(=O)Nc2ccccc21`, 111 to 112 °C.
With `CC(C)(COc1ccc(Cl)cc1)C(=O)C(Oc1ccc(Cl)cc1)n1ccnc1` (stereo not given), the melting point is 214 to 217 °C.
Under `O=Cc1cccn2c(Br)cnc12` stands 104 to 106 °C; under `CC(C)(C)OC(=O)C(C)(C)Oc1ccc2c(c1)Nc1ccccc1S2`, 138 to 140 °C; under `N=C(N)NCCCc1nccs1`, 160 to 163 °C.
Under `COc1cc(NC(=O)CC23CC4CC(CC(C4)C2)C3)c(C)c(OC)c1` stands 201 to 203 °C; under `Cn1nc(-c2ccc(C(F)(F)F)cc2)cc1C(=O)O`, 230 to 232 °C; under `OCc1cnc2cc(Br)ccc2c1O`, greater than 300 °C.
In the case of `NCCC1CCc2ccc3c(c21)NC(=O)CO3` (stereo not given), the melting point lay in the range of 128 to 134 °C.
With `Cc1cccc(-n2ncc(C)c2-c2cc3cnccc3s2)n1`, the melting point lay within 155 to 156 °C.
Under `C=CCC12CC(=O)N(C)C1(O)CCc1ccc(OCc3ccccc3)cc12` (stereo not given) stands 188 to 190 °C; under `NS(=O)(=O)c1cc(CCNC(=O)c2cnc3ccccc3c2)ccc1OCCOCC(F)(F)F`, 206 to 210 °C.
Turning to `CCOCCNc1ncc(Cc2cc(OC)c(OC)c(OC)c2)c(N)n1`, the melting point turned out to be 147 °C.
Regarding `Oc1ccc2nc(-c3ccc(O)c(F)c3)cc(C#Cc3ccccc3)c2c1`, the melting point was 125 to 129 °C.
Under `Cn1nc(-c2cc(C(=O)O)c(Cl)cc2Cl)c(Cl)c1OC(F)F` stands 159 to 160 °C.
On to `CCN(CC)CCNC(=O)N1CCCC(S(=O)(=O)c2ccc(C)cc2)C1` (stereo not given), for which the melting point lay in the range of 116 to 118 °C.
Under `O=S1CCN(c2nc3c(-c4nc(C5CC5)no4)ncn3c3ccccc23)CC1` stands 293 to 294 °C; under `CC(=O)NC1(c2ccc(CN3CCN(c4cccc(F)n4)CC3)cc2)CC1`, 135 to 136 °C; under `CCOC(=O)CC(=O)c1ccc(CCNC(C)=O)cc1`, 89 to 92 °C.
In the case of `CC1C(=O)OC2COCC21` (stereo not given) it was 89.5 to 90 °C.
Under `CCCn1c(=O)c2[nH]c(C34CCC(C)(C(=O)C3=O)C4(C)C)nc2n(CCC)c1=O` (stereo not given) stands 200 to 201 °C.
Compound `CC(=CC#N)c1cc(-c2ccc(S(C)(=O)=O)cc2)c(-c2ccc(F)cc2)s1` registered a melting point of 150 to 154 °C.
Compound `CC(=O)Cc1nc2ccccc2s1` registered a melting point of 118 to 119 °C.
Compound `COc1ccc(-c2cncc(OC3SCC(O)C(O)C3O)c2)cc1Cl` (stereo not given) returned a melting point of 165 °C.
In the case of `COC(=O)c1ccc(C2CC(=O)NC2(CO)CO)c([N+](=O)[O-])c1` (stereo not given) it was 144 to 145 °C; in that of `CC=C1OCC2(CO1)COC(=CC)OC2` (stereo not given), 30 °C.
In the case of `CN(C)C=Nc1c(Cl)cc(N=Cc2ccc(N(C)C)cc2Cl)cc1Cl` it was 139 to 140 °C.
`CN(C)C(N)=NC(=O)C(Br)c1c(Cl)cccc1Cl` (stereo not given) registered a melting point of 142 to 145 °C.
Under `O=C(O)c1cccc(-c2ccc(Cl)c3cc(Cc4ccc(F)c(F)c4)sc23)c1` stands 214 to 215 °C; under `CC(=O)NC[C@H]1CN(c2cc(F)c(N3CCC(n4nnc(N5CCN(C(C)=O)CC5)n4)CC3)c(F)c2)C(=O)O1`, 200 to 205 °C.
In the case of `CC1(C)Oc2ccc(S(=O)(=O)C(F)(F)F)cc2[C@@H](N2Cc3c(cccc3[N+](=O)[O-])C2=O)[C@@H]1O` (relative stereo) it was 292 to 295 °C; in that of `COc1ccc(-c2ccc(C(=O)O)cc2)c2c1OCCO2`, 281 to 284 °C.
Under `COC(=O)c1ccccc1S(=O)(=O)N(c1ccn(-c2nc(C)cc(C)n2)n1)S(=O)(=O)c1ccccc1C(=O)OC` stands 177 °C.
In turn, `CS(=O)(=O)c1ccc(-c2nn3c4c(oc3c2-c2ccc(F)cc2)COCC4)cc1` yielded a melting point of 200 to 201 °C.
The compound `Cc1cccc(Cl)c1NC(=O)/C=C1\SCC(=O)N1c1ccccc1` yielded a melting point of 213 to 214 °C.
In the case of `O=[N+]([O-])c1cc2nc(O)c(O)nc2cc1C(F)(F)F` it was greater than 300 °C; in that of `CCCCc1c2c(nc3cc(F)ccc13)-c1cc3c(c(=O)n1C2)COC(=O)CC3(O)CC` (stereo not given), 235 to 236 °C; in that of `O=C(NCC1CCN(CCc2ccccn2)CC1)c1ccc2nonc2c1`, 149 to 151 °C.
Under `O=C1c2c(-c3ccccc3)noc2CCC1CCCN1CCC(n2c(=O)[nH]c3ccccc32)CC1` (stereo not given) stands 212 to 218 °C; under `COc1ccc(C(N)CC(=O)O)cc1OC` (stereo not given), 208 to 210 °C; under `Nc1nc2c(Cl)cc(C(F)(F)F)cc2[nH]c1=O`, 270 to 272 °C.
With `Cn1nc(-c2nc(C=O)c(Cl)cc2F)c(Cl)c1OC(F)F`, the melting point is 120 to 121 °C.
In the case of `O=C(O)CCCC(Nc1ccccc1)c1ccc(Cl)cc1` (stereo not given) it was 133 to 134 °C; in that of `CN1C(=O)C(c2ccc(Cl)cc2)SC1c1cccnc1` (stereo not given), 77.5 to 79 °C.
In the case of `CCNC(=O)c1c(Cl)cccc1[Si](C)(C)C` it was 105 to 107 °C.
`CCOC(=O)C(F)(F)C(I)c1ccc(OC)cc1` (stereo not given): the melting point was in the range of 44 to 45 °C.
As for `O=c1[nH]c2ccc(C(O)CN3CCC(O)(c4ccccc4)CC3)cc2o1` (stereo not given), the melting point fell in the range of 175 to 177 °C.
Under `C[Si](C)(c1ccccc1)C1CC(=O)c2c(nc3ccccc3c2N)C1` (stereo not given) stands 178 to 180 °C; under `CCC(CC)N(C)Cc1ccc(NC(=O)C2=Cc3cc(-c4ccc(C)cc4)ccc3SCC2)cc1`, 136 to 137 °C; under `N#Cc1ccc(C=NNS(=O)(=O)c2ccccc2)cc1`, 209 to 213 °C.
In the case of `O=C(O)CC1=CC2(Cc3ccc(Br)cc3)C(=O)N(c3cc(Cl)cc(Cl)c3)C(=O)N2C1` (stereo not given) it was 102 °C; in that of `O=C1Nc2c(Cl)cccc2C1(O)c1ccccc1` (stereo not given), 154 to 156 °C; in that of `COCCc1nc2c(N)nc3cc(-c4ccsc4)ccc3c2n1CC(C)(C)O`, 233 to 234 °C.
Under `N#Cc1nn(-c2c(Cl)cc(C(F)(F)F)cc2Cl)c(N)c1S(=O)(=O)C(F)(F)F` stands 219 to 222 °C.
The compound `N#CCc1cccc2c(-c3ccc(F)cc3)onc12` returned a melting point of 158 to 160 °C.
Under `COc1ccc(C(=O)c2cc3ccccc3o2)cc1` stands 93 to 94 °C.
Under `Cc1cc(CNC(=O)c2ccnc(N3CCN(Cc4ccc(F)cc4)C3=O)c2)no1` stands 153 to 155 °C; under `CS(=O)(=O)N1CCC(Nc2nc(CCC(F)(F)F)nc(Nc3ccc(F)c(Cl)c3)n2)CC1`, 192 to 193 °C; under `Cc1ccc(OCC(=O)N(Cc2nc(-c3ccc(C)cc3)no2)C(C)C)cc1`, 142 to 143 °C.
Under `O=c1cc(OCc2ccccc2)c2ccc(OCCc3ccc(F)cc3)cc2o1` stands 120 °C; under `COc1cc(Nc2c(C#N)cnc3c2C=C2N=CN=C2C3)cc(OC)c1OC`, greater than 260 °C.
The compound `CCc1cccc(Nc2nc(NCc3ccc(C)o3)nc(OCC(F)(F)F)n2)c1` returned a melting point of 55 to 57 °C.
Under `NC(=O)CN1C(=O)COc2cc(F)c(N3C(=O)C4=C(CCCC4)C3=O)cc21` stands 283 to 286 °C; under `CCNCc1nc(-c2ncn3c2CN(C)C(=O)c2cc(F)ccc2-3)no1`, 166 to 168 °C.
`Cc1ccccc1NC(=O)c1c(Br)cccc1[Si](C)(C)C` yielded a melting point of 113 to 115 °C.
In the case of `C=CS(=O)(=O)Nc1c(C)cc(C)cc1C` it was 117 to 120 °C.
In the case of `O=C(NCc1cccs1)c1cc2ccnc(Cl)c2[nH]1` it was 179 to 181 °C.
Under `O=C(c1ccccc1)c1cc(-c2ccncc2)c(N2CCOCC2)s1` stands 122 °C.
`Cc1c(C)c2c(c(C)c1NC(=O)CC(C)(C)C)C(c1ccc(C(C)(C)O)cc1)CO2` (stereo not given) displayed a melting point of 132 to 134 °C.
Compound `CCOC(=O)C(C)=NNc1ccc(C)cc1C` displayed a melting point of 146 °C.
`CCCn1c(C)c(C(C)=O)c(N)c1-c1ccccc1`: the melting point is 113 to 115 °C.
Under `CO/C=C(\C(=O)OC)c1ccccc1C` stands 68 to 70 °C; under `COc1cc2c(cc1Nc1ncc(Cl)c(Nc3cccc(OCC#N)c3)n1)CCOC(=O)N2C`, 227 to 229 °C; under `COc1cc(C(C)=O)ccc1OCCCCN1CCN(c2n[nH]c3cc(F)ccc23)CC1`, 156 to 158 °C.
In the case of `CCCCCCC1CC(Cn2cncn2)(c2ccccc2)N(C)O1` (stereo not given) it was 93 to 99 °C; in that of `CC(C)n1nc(-c2c(NC(=N)N)nc(N)nc2-c2ccccc2)ccc1=O`, 272 to 274 °C; in that of `COc1ccc(C(=O)Nc2ccc(N3CCCC3)cc2C(C)=O)cc1`, 174 to 175 °C.
Under `C[C@@H](n1cnc2cc(N3CCN(C)CC3)ccc2c1=O)[C@](O)(Cn1cncn1)c1ccc(F)cc1F` stands 121 to 131 °C; under `Cn1nc(CNC(=O)Nc2ccccc2)nc1NCCCOc1cccc(CN2CCCCC2)c1`, 120 to 121 °C.
Consider `COC(=O)c1ccccc1CSc1c(O)cc(-c2ccccc2)oc1=O`, for which the melting point is 122 to 123 °C.
In the case of `Cc1cc2c(cc1C)C(C(F)(F)F)(C(F)(F)C(F)(F)F)c1cc(C)c(C)cc1O2` it was 139 to 140 °C; in that of `Cc1cc(C(N)=O)c(N)s1`, 140 to 141 °C.
